Values quoted from earlier work in patent US20090104287A1, “Protocol for AIDS prevention and treatment by nutritional methods” (priority 2002, published 2009).

Columns and labels:
[1] = test system: HIV-infected patients; settings: supplementation (usually given as N-acetyl cysteine)
[2] = test system: HIV seropositive patients; settings: supplementation

Row | SMILES | glutathione in CD4 T cells [1] | replenishing whole blood and T cell glutathione [2]
1 | N[C@@H](CS)C(=O)O [cysteine] | replenishes low glutathione in CD4 T cells | 
2 | CC(=O)N[C@@H](CS)C(=O)O [N-acetyl cysteine] |  | often seems effective in replenishing both whole blood and T cell glutathione
